According to PubChem BioAssay AID2060893 (Molecular Pharmacology Branch, DTP, NCI, 2025):
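Also: spheroids exposed to agents for seven days before readout.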

What follows are compounds tested on K86415-001-R-J1-PDC complex spheroids, viability (assay: Anticancer human tumor K86415-001-R-J1-PDC patient-derived lung adenocarcinoma cell line growth inhibition [RAS]). Details: second compound 0.1 µM; first compound 0.1 µM; active compounds read low.
In short: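 Agents were tested in combination matrices in half-log decrements from a top concentration at or near clinical Cmax (10 microM if undetermined). Targets were multi-cell spheroids of tumour lines plus HUVEC and MSC stromal cells.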
`CC(C)NCC(C(=O)N1CCN(c2ncnc3c2C(C)CC3O)CC1)c1ccc(Cl)cc1` (stereo unspecified) + C=CC(=O)N1CCN(c2nc(OCC3CCCN3C)nc3c(F)c(-c4nc(N)cc(C)c4C(F)(F)F)c(Cl)cc23)C(C)C1 showed a viability, T/C of 9.65%.
`CC(C)n1nc(-c2ccc3oc(N)nc3c2)c2c(N)ncnc21` + C=CC(=O)N1CCN(c2nc(OCC3CCCN3C)nc3c(F)c(-c4nc(N)cc(C)c4C(F)(F)F)c(Cl)cc23)C(C)C1 gave a viability, T/C of 3.67%.
For `CC(Nc1ccc2c(c1)OCCn1cc(N3C(=O)OCC3C(F)F)nc1-2)C(N)=O` (stereo unspecified) + C=CC(=O)N1CCN(c2nc(OCC3CCCN3C)nc3c(F)c(-c4nc(N)cc(C)c4C(F)(F)F)c(Cl)cc23)C(C)C1, the viability, T/C was 6.36%.
`C[C@@H](NC(=O)c1ncnc(N)c1Cl)c1ncc(C(=O)Nc2cc(C(F)(F)F)c(Cl)cn2)s1` + C=CC(=O)N1CCN(c2nc(OCC3CCCN3C)nc3c(F)c(-c4nc(N)cc(C)c4C(F)(F)F)c(Cl)cc23)C(C)C1 showed a viability, T/C of 10.6%.
`O=C(c1ccc(F)c(F)c1Nc1ccc(I)cc1F)N1CC(O)([C@@H]2CCCCN2)C1` + C=CC(=O)N1CCN(c2nc(OCC3CCCN3C)nc3c(F)c(-c4nc(N)cc(C)c4C(F)(F)F)c(Cl)cc23)C(C)C1 showed a viability, T/C of 5.29%.

Same assay, conditions: second compound 0.1 µM; first compound 0.316 µM; active compounds read low
`CC(C)NCC(C(=O)N1CCN(c2ncnc3c2C(C)CC3O)CC1)c1ccc(Cl)cc1` (stereo unspecified) + C=CC(=O)N1CCN(c2nc(OCC3CCCN3C)nc3c(F)c(-c4nc(N)cc(C)c4C(F)(F)F)c(Cl)cc23)C(C)C1 showed a viability, T/C of 7.67%.
`CC(Nc1ccc2c(c1)OCCn1cc(N3C(=O)OCC3C(F)F)nc1-2)C(N)=O` (stereo unspecified) + C=CC(=O)N1CCN(c2nc(OCC3CCCN3C)nc3c(F)c(-c4nc(N)cc(C)c4C(F)(F)F)c(Cl)cc23)C(C)C1 showed a viability, T/C of 3.79%.
`C[C@@H](NC(=O)c1ncnc(N)c1Cl)c1ncc(C(=O)Nc2cc(C(F)(F)F)c(Cl)cn2)s1` + C=CC(=O)N1CCN(c2nc(OCC3CCCN3C)nc3c(F)c(-c4nc(N)cc(C)c4C(F)(F)F)c(Cl)cc23)C(C)C1 showed a viability, T/C of 14.1%.
With `O=C(c1ccc(F)c(F)c1Nc1ccc(I)cc1F)N1CC(O)([C@@H]2CCCCN2)C1` + C=CC(=O)N1CCN(c2nc(OCC3CCCN3C)nc3c(F)c(-c4nc(N)cc(C)c4C(F)(F)F)c(Cl)cc23)C(C)C1 the viability, T/C was 3.4%.

Same assay, conditions: second compound 0.1 µM; first compound 1 µM; active compounds read low
With `CC(C)NCC(C(=O)N1CCN(c2ncnc3c2C(C)CC3O)CC1)c1ccc(Cl)cc1` (stereo unspecified) + C=CC(=O)N1CCN(c2nc(OCC3CCCN3C)nc3c(F)c(-c4nc(N)cc(C)c4C(F)(F)F)c(Cl)cc23)C(C)C1 the viability, T/C was 4.58%.
`CC(Nc1ccc2c(c1)OCCn1cc(N3C(=O)OCC3C(F)F)nc1-2)C(N)=O` (stereo unspecified) + C=CC(=O)N1CCN(c2nc(OCC3CCCN3C)nc3c(F)c(-c4nc(N)cc(C)c4C(F)(F)F)c(Cl)cc23)C(C)C1 gave a viability, T/C of 3.04%.
For `C[C@@H](NC(=O)c1ncnc(N)c1Cl)c1ncc(C(=O)Nc2cc(C(F)(F)F)c(Cl)cn2)s1` + C=CC(=O)N1CCN(c2nc(OCC3CCCN3C)nc3c(F)c(-c4nc(N)cc(C)c4C(F)(F)F)c(Cl)cc23)C(C)C1, the viability, T/C was 10.8%.
Work on `O=C(c1ccc(F)c(F)c1Nc1ccc(I)cc1F)N1CC(O)([C@@H]2CCCCN2)C1` + C=CC(=O)N1CCN(c2nc(OCC3CCCN3C)nc3c(F)c(-c4nc(N)cc(C)c4C(F)(F)F)c(Cl)cc23)C(C)C1 yielded a viability, T/C of 2.5%.

Same assay, conditions: second compound 0.1 µM; first compound 3.16 µM; active compounds read low
`CC(C)NCC(C(=O)N1CCN(c2ncnc3c2C(C)CC3O)CC1)c1ccc(Cl)cc1` (stereo unspecified) + C=CC(=O)N1CCN(c2nc(OCC3CCCN3C)nc3c(F)c(-c4nc(N)cc(C)c4C(F)(F)F)c(Cl)cc23)C(C)C1 was tested, and the viability, T/C was 6.35%.
In the case of `CC(Nc1ccc2c(c1)OCCn1cc(N3C(=O)OCC3C(F)F)nc1-2)C(N)=O` (stereo unspecified) + C=CC(=O)N1CCN(c2nc(OCC3CCCN3C)nc3c(F)c(-c4nc(N)cc(C)c4C(F)(F)F)c(Cl)cc23)C(C)C1, the viability, T/C is reported as 1.94%.
`C[C@@H](NC(=O)c1ncnc(N)c1Cl)c1ncc(C(=O)Nc2cc(C(F)(F)F)c(Cl)cn2)s1` + C=CC(=O)N1CCN(c2nc(OCC3CCCN3C)nc3c(F)c(-c4nc(N)cc(C)c4C(F)(F)F)c(Cl)cc23)C(C)C1 was tested, and the viability, T/C was 9.5%.

Same assay, conditions: second compound 0.1 µM; first compound 10 µM; active compounds read low
With `CC(C)NCC(C(=O)N1CCN(c2ncnc3c2C(C)CC3O)CC1)c1ccc(Cl)cc1` (stereo unspecified) + C=CC(=O)N1CCN(c2nc(OCC3CCCN3C)nc3c(F)c(-c4nc(N)cc(C)c4C(F)(F)F)c(Cl)cc23)C(C)C1 the viability, T/C was 2.96%.
Work on `CC(Nc1ccc2c(c1)OCCn1cc(N3C(=O)OCC3C(F)F)nc1-2)C(N)=O` (stereo unspecified) + C=CC(=O)N1CCN(c2nc(OCC3CCCN3C)nc3c(F)c(-c4nc(N)cc(C)c4C(F)(F)F)c(Cl)cc23)C(C)C1 yielded a viability, T/C of 1.11%.
`C[C@@H](NC(=O)c1ncnc(N)c1Cl)c1ncc(C(=O)Nc2cc(C(F)(F)F)c(Cl)cn2)s1` + C=CC(=O)N1CCN(c2nc(OCC3CCCN3C)nc3c(F)c(-c4nc(N)cc(C)c4C(F)(F)F)c(Cl)cc23)C(C)C1 showed a viability, T/C of 9.83%.

Same assay, conditions: second compound 0.316 µM; first compound 0.000316 µM; active compounds read low
`CC(C)n1nc(-c2ccc3oc(N)nc3c2)c2c(N)ncnc21` + C=CC(=O)N1CCN(c2nc(OCC3CCCN3C)nc3c(F)c(-c4nc(N)cc(C)c4C(F)(F)F)c(Cl)cc23)C(C)C1 was tested, and the viability, T/C was 10.1%.

Same assay, conditions: second compound 0.316 µM; first compound 0.001 µM; active compounds read low
`CC(C)n1nc(-c2ccc3oc(N)nc3c2)c2c(N)ncnc21` + C=CC(=O)N1CCN(c2nc(OCC3CCCN3C)nc3c(F)c(-c4nc(N)cc(C)c4C(F)(F)F)c(Cl)cc23)C(C)C1 gave a viability, T/C of 8.76%.

Same assay, conditions: second compound 0.316 µM; first compound 0.00316 µM; active compounds read low
Work on `CC(C)n1nc(-c2ccc3oc(N)nc3c2)c2c(N)ncnc21` + C=CC(=O)N1CCN(c2nc(OCC3CCCN3C)nc3c(F)c(-c4nc(N)cc(C)c4C(F)(F)F)c(Cl)cc23)C(C)C1 yielded a viability, T/C of 9.08%.
Compound `O=C(c1ccc(F)c(F)c1Nc1ccc(I)cc1F)N1CC(O)([C@@H]2CCCCN2)C1` + C=CC(=O)N1CCN(c2nc(OCC3CCCN3C)nc3c(F)c(-c4nc(N)cc(C)c4C(F)(F)F)c(Cl)cc23)C(C)C1 has a viability, T/C of 9.04%.

Same assay, conditions: second compound 0.316 µM; first compound 0.01 µM; active compounds read low
`CC(C)n1nc(-c2ccc3oc(N)nc3c2)c2c(N)ncnc21` + C=CC(=O)N1CCN(c2nc(OCC3CCCN3C)nc3c(F)c(-c4nc(N)cc(C)c4C(F)(F)F)c(Cl)cc23)C(C)C1 showed a viability, T/C of 8.68%.
`O=C(c1ccc(F)c(F)c1Nc1ccc(I)cc1F)N1CC(O)([C@@H]2CCCCN2)C1` + C=CC(=O)N1CCN(c2nc(OCC3CCCN3C)nc3c(F)c(-c4nc(N)cc(C)c4C(F)(F)F)c(Cl)cc23)C(C)C1 was tested, and the viability, T/C was 7.51%.

Same assay, conditions: second compound 0.316 µM; first compound 0.0316 µM; active compounds read low
In the case of `CC(C)NCC(C(=O)N1CCN(c2ncnc3c2C(C)CC3O)CC1)c1ccc(Cl)cc1` (stereo unspecified) + C=CC(=O)N1CCN(c2nc(OCC3CCCN3C)nc3c(F)c(-c4nc(N)cc(C)c4C(F)(F)F)c(Cl)cc23)C(C)C1, the viability, T/C is reported as 12.1%.
